{"source": "patent US20240308992A1", "about": "(Biopolar Youtang(Guangdong) Pharmaceutical Co., Ltd., priority 2021, published 2024)", "data": [{"target": "T1, Drak2 (Homo sapiens, UniProt O94768)", "T1 sequence (O94768 1-372)": "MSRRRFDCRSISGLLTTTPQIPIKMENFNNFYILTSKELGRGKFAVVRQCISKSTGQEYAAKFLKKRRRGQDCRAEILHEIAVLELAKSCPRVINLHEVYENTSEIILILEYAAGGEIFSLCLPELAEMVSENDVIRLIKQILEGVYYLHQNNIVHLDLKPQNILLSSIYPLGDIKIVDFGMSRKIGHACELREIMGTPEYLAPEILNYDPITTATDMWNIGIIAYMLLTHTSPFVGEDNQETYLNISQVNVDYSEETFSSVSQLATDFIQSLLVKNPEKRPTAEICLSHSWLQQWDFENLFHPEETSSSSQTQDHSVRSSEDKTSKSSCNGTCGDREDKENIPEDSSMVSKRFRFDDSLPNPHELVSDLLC", "experiment": "Drak2 activity test, ADP-Glo kinase assay (Promega)", "assay_type": "biochemical", "settings": "inhibition of Drak2 kinase activity, 2 h room temperature, activity range classes, read-out: IC50_Drak2", "units": {"IC50": "nM"}, "values": [{"smiles": "CN1CCC(C(=O)N2CCOc3cc(-c4cncc(-c5cc(NC(=O)CC6CC6)cs5)n4)ccc32)CC1", "note": "[Example E2, 2-cyclopropyl-N-(5-(6-(4-(1-methylpiperidin-4-carbonyl)-3,4-dihydro-2H-benzo[b][1,4]oxazin-7-yl)pyrazine-2-yl)thiophene-3-yl) acetamide]", "IC50": "11 to 100"}, {"smiles": "COc1cc(-c2cncc(-c3cc(NC(=O)NC4CCC4)cs3)n2)ccc1C(=O)N(C)C1CCN(C)CC1", "note": "[Example F1, 4-(6-(4-(3-cyclobutylurea)thiophen-2-yl)pyrazin-2-yl)-2-methoxy-N-methyl-N-(1-methylpiperidin-4-yl) benzamide]", "IC50": "11 to 100"}, {"smiles": "COc1cc(-c2cncc(-c3cc(OCC[C@H](C)CN)cs3)n2)ccc1C(=O)N(C)C1CCN(C)CC1", "note": "[Example G1, (S)-4-(6-(4-(4-amino-3-methylbutoxy)thiophen-2-yl)pyrazin-2-yl)-2-methoxy-N-methyl-N-(1-methylpiperidin-4-yl) benzamide]", "IC50": "101 to 1000"}]}]}
